The nature of series [1]: Plasma pharmacokinetics by LC-MS/MS.
Series [2] relates to subjects of the Adenoma Prevention with Celecoxib Trial. The following applies: ref [32], cited from earlier work.
Series [3] concerns metastatic colorectal cancer. Particulars: second-line single-agent; ref [33]; cited from earlier work.
[4] abbreviates: capecitabine 1,000 mg/m^2 alone (run-in, Pre), mean ± SD in 8 patients.
Setting [5] is: capecitabine 1,000 mg/m^2 in combination with 250 mg gefitinib, C1D1, mean ± SD in 8 patients.

In general, CL/F refers to clearance divided by bioavailability, as obtained after extravascular dosing. Usually Vd/F stands for the apparent distribution volume after extravascular dosing. Usually AUC(0-inf) stands for the area under the concentration-time curve extrapolated to infinity.

Take `CCCCCOC(=O)Nc1nc(=O)n([C@@H]2O[C@H](C)[C@@H](O)[C@H]2O)cc1F` [capecitabine]: the “effect of gefitinib on the AUC, Cmax, t1/2, and clearance of capecitabine” value in series [1] (alone (run-in day) vs in combination with gefitinib (cycle 1 day 1)) was “no significant effects”. Moreover, the apparent clearance (CL/F) in series [1] (setting [4]) was found to be 272 ± 120 L/h; in series [1] (setting [5]), 300 ± 204 L/h. Also, the t1/2λ is listed as 0.93 ± 0.92 h in series [1] (setting [4]) and 1.09 ± 0.80 h in series [1] (setting [5]). In series [1] (human, plasma, oral, 1000 mg/m^2), this compound registered a Vd/F of 363 ± 364 L. The AUC(0-inf) in series [1] (human, plasma, oral, AUC0→∞, capecitabine 1,000 mg/m^2 in combination with 250 mg gefitinib, C1D1, mean ± SD in 8 patients) was 13.2 ± 8.1 µM·h.

With `Cc1ccc(-c2cc(C(F)(F)F)nn2-c2ccc(S(N)(=O)=O)cc2)cc1` [celecoxib], the “subjects who experienced cardiovascular events” value in series [2] (35 of 1,356 subjects who received celecoxib) is 2.6%. Besides, in series [2] (compared with placebo), the “increase in risk of major fatal and nonfatal cardiovascular events” value is 2.5 fold. Besides, in series [1] (across any of the doses tested (data not shown)), the “steady-state plasma trough levels of celecoxib” value is reported as “Neither capecitabine nor gefitinib affected”.

Regarding `COc1cc2ncnc(Nc3ccc(F)c(Cl)c3)c2cc1OCCCN1CCOCC1` [gefitinib], in series [1] (across dose levels), the “effect of capecitabine on the trough levels of gefitinib” value is “did not affect”.

Turning to `O=C1[O][Pt]2([NH][C@@H]3CCCC[C@H]3[NH]2)[O]C1=O` [oxaliplatin], the response rate in series [3] was 10%.
